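Where inhibition never reached the appropriate level, the endpoint shown equals the highest concentration tested. Otherwise, values were interpolated linearly from a five-concentration, 48-hour dose response in 96-well plates. GI50 = concentration required for 50% inhibition of growth. TGI marks complete inhibition of growth.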
Legend:
Assay in all cases: DTP human tumour cell line panel, 48 h
U251 CNS = system: U251 CNS
DU-145 prostate = system: DU-145 prostate
K-562 leukemia = system: K-562 leukemia
NCI-H460 lung = system: NCI-H460 lung
CCRF-CEM leukemia = system: CCRF-CEM leukemia
MDA-MB-231 breast = system: MDA-MB-231 breast
OVCAR-5 ovarian = system: OVCAR-5 ovarian
EKVX NSCLC = system: EKVX NSCLC
UACC-62 melanoma = system: UACC-62 melanoma
RXF 393 renal = system: RXF 393 renal
786-0 renal = system: 786-0 renal
UACC-257 melanoma = system: UACC-257 melanoma
RPMI-8226 leukemia = system: RPMI-8226 leukemia
SK-OV-3 ovarian = system: SK-OV-3 ovarian
LOX IMVI melanoma = system: LOX IMVI melanoma
HOP-62 NSCLC = system: HOP-62 NSCLC
OVCAR-4 ovarian = system: OVCAR-4 ovarian
NCI-H226 lung = system: NCI-H226 lung
SF-295 CNS = system: SF-295 CNS
OVCAR-3 ovarian = system: OVCAR-3 ovarian
HL-60(TB) leukemia = system: HL-60(TB) leukemia
SNB-19 CNS = system: SNB-19 CNS
PC-3 prostate = system: PC-3 prostate
BT-549 breast = system: BT-549 breast
NCI-H522 lung = system: NCI-H522 lung
A549 NSCLC = system: A549 NSCLC
M14 melanoma = system: M14 melanoma
T-47D breast = system: T-47D breast
CAKI-1 renal = system: CAKI-1 renal

With `CCN(CC)c1ccc(/C=N/NC(=O)c2ccc(S(C)(=O)=O)cc2)c(O)c1` the GI50 (U251 CNS) was 0.238 µM, the TGI (U251 CNS) was over 41 µM and the GI50 (DU-145 prostate) was 0.308 µM. It also gave a TGI (DU-145 prostate) of over 100 µM, a GI50 (K-562 leukemia) of 0.9 µM and a TGI (K-562 leukemia) of over 100 µM. It also gave a GI50 (NCI-H460 lung) of 0.179 µM, a TGI (NCI-H460 lung) of 16 µM and a GI50 (CCRF-CEM leukemia) of 0.0825 µM. It also gave a TGI (CCRF-CEM leukemia) of over 100 µM, a GI50 (MDA-MB-231 breast) of 0.347 µM and a TGI (MDA-MB-231 breast) of over 100 µM. The GI50 (OVCAR-5 ovarian) was 2.86 µM, the TGI (OVCAR-5 ovarian) was over 100 µM and the GI50 (EKVX NSCLC) was 0.222 µM. For the same compound, the TGI (EKVX NSCLC) was over 100 µM, the GI50 (UACC-62 melanoma) was 0.306 µM and the TGI (UACC-62 melanoma) was 15.1 µM. It also gave a GI50 (RXF 393 renal) of 0.452 µM, a TGI (RXF 393 renal) of over 62.1 µM and a GI50 (786-0 renal) of 0.246 µM. The TGI (786-0 renal) was over 100 µM, the GI50 (UACC-257 melanoma) was 0.34 µM and the TGI (UACC-257 melanoma) was 5.6 µM. The GI50 (RPMI-8226 leukemia) was 0.399 µM, the TGI (RPMI-8226 leukemia) was over 100 µM and the GI50 (SK-OV-3 ovarian) was 0.251 µM. For the same compound, the TGI (SK-OV-3 ovarian) was 57.8 µM, the GI50 (LOX IMVI melanoma) was 0.15 µM and the TGI (LOX IMVI melanoma) was 2.76 µM. It also gave a GI50 (HOP-62 NSCLC) of 0.156 µM, a TGI (HOP-62 NSCLC) of over 57.9 µM and a GI50 (OVCAR-4 ovarian) of 0.139 µM. For the same compound, the TGI (OVCAR-4 ovarian) was over 80.3 µM, the GI50 (NCI-H226 lung) was 0.174 µM and the TGI (NCI-H226 lung) was 5.19 µM. For the same compound, the GI50 (SF-295 CNS) was 0.259 µM, the TGI (SF-295 CNS) was over 100 µM and the GI50 (OVCAR-3 ovarian) was 0.177 µM. For the same compound, the TGI (OVCAR-3 ovarian) was over 100 µM, the GI50 (HL-60(TB) leukemia) was 0.288 µM and the TGI (HL-60(TB) leukemia) was 3.01 µM. The GI50 (SNB-19 CNS) was 0.56 µM, the TGI (SNB-19 CNS) was over 100 µM and the GI50 (PC-3 prostate) was 0.409 µM. For the same compound, the TGI (PC-3 prostate) was over 100 µM, the GI50 (BT-549 breast) was 0.596 µM and the TGI (BT-549 breast) was over 39.9 µM. It also gave a GI50 (NCI-H522 lung) of 0.455 µM, a TGI (NCI-H522 lung) of over 100 µM and a GI50 (A549 NSCLC) of 0.542 µM. It also gave a TGI (A549 NSCLC) of over 100 µM, a GI50 (M14 melanoma) of 0.21 µM and a TGI (M14 melanoma) of 2.45 µM. The GI50 (T-47D breast) was 0.444 µM, the TGI (T-47D breast) was over 100 µM and the GI50 (CAKI-1 renal) was 0.199 µM. It also gave a TGI (CAKI-1 renal) of over 100 µM.
